Data as given in ChEMBL document CHEMBL1153039, “Allosteric modulators of the adenosine A1 receptor: synthesis and pharmacological evaluation of 4-substituted 2-amino-3-benzoylthiophenes” (J Med Chem, 2009).
The source made the active and inactive calls. The calls are words filed in the database; no cut-off is given here.

What was measured:
[1] = molecular target: T1, Adenosine receptor A1 (Homo sapiens) (UniProt P30542); assay: Allosteric modulation of human adenosine A1 receptor transfected in CHO FlpIn cells assessed as orthosteric agonist R-PIA-mediated ERK1/2 phosphorylation at 10 uM pretreated 30 mins before R-PIA challenge measured after 1.5 hrs by fluorescence assay; assay type: functional, cell-based
T1 sequence (whole entry): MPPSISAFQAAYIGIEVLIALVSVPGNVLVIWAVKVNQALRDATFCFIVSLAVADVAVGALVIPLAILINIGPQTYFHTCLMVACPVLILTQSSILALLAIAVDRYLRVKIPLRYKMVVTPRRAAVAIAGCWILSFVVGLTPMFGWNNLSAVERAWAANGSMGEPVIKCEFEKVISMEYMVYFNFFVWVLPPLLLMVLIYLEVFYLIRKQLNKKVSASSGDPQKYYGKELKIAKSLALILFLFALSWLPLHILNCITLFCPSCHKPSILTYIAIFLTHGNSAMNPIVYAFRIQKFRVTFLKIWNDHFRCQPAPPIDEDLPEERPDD

[2] = molecular target: T1, Adenosine receptor A1 (Homo sapiens); assay: Allosteric modulation of human adenosine A1 receptor transfected in CHO FlpIn cells assessed as orthosteric agonist R-PIA-mediated ERK1/2 phosphorylation at 3 uM pretreated 30 mins before R-PIA challenge measured after 1.5 hrs by fluorescence assay; assay type: functional, cell-based
[3] = molecular target: T1, Adenosine receptor A1 (Homo sapiens); assay: Binding affinity to allosteric site of unoccupied human adenosine A1 receptor transfected in CHO FlpIn cells assessed as potentiation of orthosteric agonist R-PIA-mediated ERK1/2 phosphorylation pretreated 30 mins before R-PIA challenge measured after 1.5 hrs by fluorescence assay; assay type: cell-based
[4] = molecular target: T1, Adenosine receptor A1 (Homo sapiens); assay: […] at human adenosine A1 receptor transfected in CHO FlpIn cells assessed as potentiation of orthosteric agonist R-PIA-mediated [35S]GTPgammaS binding at 0.1 to 3 uM after 60 mins by liquid scintillation counting; assay type: functional, cell-based
[5] = molecular target: T1, Adenosine receptor A1 (Homo sapiens); assay: Allosteric modulation of human adenosine A1 receptor transfected in CHO FlpIn cells assessed as orthosteric agonist R-PIA-mediated ERK1/2 phosphorylation at 0.1 to 3 uM pretreated 30 mins before R-PIA challenge measured after 1.5 hrs by fluorescence assay; assay type: functional, cell-based
[6] = molecular target: T1, Adenosine receptor A1 (Homo sapiens); assay: Binding affinity to allosteric site of unoccupied human adenosine A1 receptor transfected in CHO FlpIn cells as potentiation of orthosteric agonist R-PIA-mediated [35S]GTPgammaS binding after 60 mins by liquid scintillation counting; assay type: functional, cell-based

SMILES | Activity [1] [%] | Activity [2] [%] | pKb [3] | Activity [4] | Activity [5] | pKb [6]
Nc1scc(-c2ccc([N+](=O)[O-])cc2)c1C(=O)c1ccc(Cl)cc1 | 52 | 47 |  |  |  | 
Nc1scc(-c2ccccc2F)c1C(=O)c1ccccc1 | 68 | 55 |  |  |  | 
Nc1scc(-c2ccc(I)cc2)c1C(=O)c1ccccc1 | 50 | 51 |  |  |  | 
Nc1scc(-c2ccc3ccccc3c2)c1C(=O)c1ccc(Cl)cc1 | 67 | 54 |  |  |  | 
COc1ccc(-c2csc(N)c2C(=O)c2ccccc2)cc1 | 52 | 52 |  |  |  | 
Nc1scc(-c2ccc([N+](=O)[O-])cc2)c1C(=O)c1ccccc1 | 47 | 50 |  |  |  | 
Nc1scc(-c2ccc(Cl)cc2)c1C(=O)c1ccccc1 | 51 | 46 |  |  |  | 
Nc1scc(-c2cccc(F)c2)c1C(=O)c1ccc(Cl)cc1 | 90 | 76 |  |  |  | 
Nc1scc(-c2cccc(Br)c2)c1C(=O)c1ccc(Cl)cc1 | 69 | 62 |  |  |  | 
Nc1scc(-c2ccc(F)cc2)c1C(=O)c1ccccc1 | 60 | 51 |  |  |  | 
Nc1scc(-c2cc(C(F)(F)F)cc(C(F)(F)F)c2)c1C(=O)c1ccc(Cl)cc1 | 74 | 69 |  |  |  | 
COc1cccc(-c2csc(N)c2C(=O)c2ccccc2)c1 | 34 | 41 |  |  |  | 
Nc1scc(-c2ccccc2)c1C(=O)c1ccc(Cl)cc1 | 64 | 51 |  |  |  | 
Nc1scc(-c2cccc(F)c2)c1C(=O)c1ccccc1 | 52 | 51 |  |  |  | 
Nc1scc(-c2cccc(C(F)(F)F)c2)c1C(=O)c1ccc(Cl)cc1 | 73 | 64 |  |  |  | 
Nc1scc(-c2ccc(Br)cc2)c1C(=O)c1ccccc1 | 49 | 46 |  |  |  | 
Nc1scc(-c2cc(C(F)(F)F)cc(C(F)(F)F)c2)c1C(=O)c1ccccc1 | 93 | 83 | 5.22 | Active | Active | 5.82

The next lines start with the values.

Activity [1] [%] | Activity [2] [%] | pKb [3] | Activity [4] | Activity [5] | pKb [6] | SMILES
73 | 55 |  |  |  |  | Nc1scc(-c2ccc3ccccc3c2)c1C(=O)c1ccccc1
61 | 54 |  |  |  |  | Nc1scc(-c2ccc(I)cc2)c1C(=O)c1ccc(Cl)cc1
42 | 53 |  |  |  |  | Nc1scc(-c2cccc([N+](=O)[O-])c2)c1C(=O)c1ccc(Cl)cc1
48 | 49 |  |  |  |  | Nc1scc(-c2ccccc2)c1C(=O)c1ccccc1
87 | 70 |  |  |  |  | Nc1scc(-c2ccccc2F)c1C(=O)c1ccc(Cl)cc1
52 | 45 |  |  |  |  | Nc1scc(-c2cccc(Cl)c2)c1C(=O)c1ccccc1
50 | 47 |  |  |  |  | Nc1scc(-c2cccc([N+](=O)[O-])c2)c1C(=O)c1ccccc1
61 | 62 |  |  |  |  | Nc1scc(-c2ccc(F)cc2)c1C(=O)c1ccc(Cl)cc1
50 | 50 |  |  |  |  | Nc1scc(-c2ccc(Cl)cc2)c1C(=O)c1ccc(Cl)cc1
46 | 45 |  |  |  |  | Nc1scc(-c2ccc(Br)cc2)c1C(=O)c1ccc(Cl)cc1
75 | 58 |  |  |  |  | Nc1scc(-c2cccc(Cl)c2)c1C(=O)c1ccc(Cl)cc1
60 | 58 |  |  |  |  | COc1cccc(-c2csc(N)c2C(=O)c2ccc(Cl)cc2)c1
59 | 83 | 6.37 | Active | Active | 5.96 | Nc1scc(-c2cccc(C(F)(F)F)c2)c1C(=O)c1ccccc1
55 | 51 |  |  |  |  | COc1ccc(-c2csc(N)c2C(=O)c2ccc(Cl)cc2)cc1
76 | 67 |  |  |  |  | Nc1scc(-c2cccc(Br)c2)c1C(=O)c1ccccc1
